Data as given in the supplement of paper PMC10307832.

How the values were obtained:
Test in all cases: relative viability (nuclei count vs DMSO), 5 days (fraction); higher = more cells survive
[1] = compound: C1=CC=C2C(=C1)N=C(S2)C(C#N)C3=NC(=NC=C3)NCCC4=CN=CC=C4 + CS(=O)(=O)CCNCc1ccc(-c2ccc3ncnc(Nc4ccc(OCc5cccc(F)c5)c(Cl)c4)c3c2)o1 [Lapatinib] (partner 2 µM)
Summary of the method: (§1)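 Nuclei were stained with Hoechst during a one-step fixation (final 0.05% Triton X-100, 1% formaldehyde, 1 ug/ml Hoechst) carried out 5 days after dosing, then counted on 4× images. The cells, lung cancer lines in 1536-well plates, had been dosed by pin tool the day after seeding with one drug alone or a fixed anchor-drug dose plus five library-drug doses (not always all listed) in √10 steps. Relative viability is the nuclei count in treated wells divided by that in vehicle wells, and each value is the median of duplicate plates.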

Vandetanib + Navitoclax = compound: COc1cc2/c(=N/c3ccc(Br)cc3F)nc[nH]c2cc1OCC1CCN(C)CC1 [Vandetanib] + CC1(C)CCC(c2ccc(Cl)cc2)=C(CN2CCN(c3ccc(C(=O)NS(=O)(=O)c4ccc(N[C@H](CCN5CCOCC5)CSc5ccccc5)c(S(=O)(=O)C(F)(F)F)c4)cc3)CC2)C1 [Navitoclax] (partner 0.5 µM)
Summary of the method: as §1

Vandetanib + Decitabine = compound: COc1cc2/c(=N/c3ccc(Br)cc3F)nc[nH]c2cc1OCC1CCN(C)CC1 [Vandetanib] + Nc1ncn([C@H]2C[C@H](O)[C@@H](CO)O2)c(=O)n1 [Decitabine] (partner 2 µM)
Summary of the method: as §1

[2] = compound: C1=CC=C2C(=C1)N=C(S2)C(C#N)C3=NC(=NC=C3)NCCC4=CN=CC=C4 + COc1cc2c(Oc3ccc(NC(=O)C4(C(=O)Nc5ccc(F)cc5)CC4)cc3F)ccnc2cc1OCCCN1CCOCC1 [Foretinib] (partner 0.25 µM)
Summary of the method: as §1

Cell Line | relative viability ([1]; first compound 0.005 µM) | relative viability ([1]; first compound 0.01581 µM) | relative viability ([1]; first compound 0.05 µM) | relative viability ([1]; first compound 0.1581 µM) | relative viability ([1]; first compound 0.5 µM) | relative viability (Vandetanib + Navitoclax; first compound 0.02 µM) | relative viability (Vandetanib + Navitoclax; first compound 0.06325 µM) | relative viability (Vandetanib + Navitoclax; first compound 0.2 µM) | relative viability (Vandetanib + Navitoclax; first compound 0.6325 µM) | relative viability (Vandetanib + Navitoclax; first compound 2 µM) | relative viability (Vandetanib + Decitabine; first compound 0.02 µM) | relative viability (Vandetanib + Decitabine; first compound 0.06325 µM) | relative viability (Vandetanib + Decitabine; first compound 0.2 µM) | relative viability (Vandetanib + Decitabine; first compound 0.6325 µM) | relative viability (Vandetanib + Decitabine; first compound 2 µM) | relative viability ([2]; first compound 0.005 µM) | relative viability ([2]; first compound 0.01581 µM) | relative viability ([2]; first compound 0.05 µM) | relative viability ([2]; first compound 0.1581 µM) | relative viability ([2]; first compound 0.5 µM)
HCC-44 | 0.848 | 1.02 | 1.01 | 1.16 | 0.823 | 1.05 | 1.02 | 0.93 | 0.976 | 0.947 | 0.999 | 0.992 | 0.949 | 0.897 | 0.973 | – | – | – | – | –
HCC-78 | 1.07 | 0.664 | 0.57 | 1.01 | 0.896 | 0.732 | 0.649 | 0.828 | 0.887 | 0.573 | 0.715 | 0.632 | 0.683 | 0.689 | 0.643 | 0.473 | 0.526 | 0.523 | 0.559 | 0.504
HCC-366 | 0.941 | 1.15 | 0.921 | 1.18 | 1.07 | 1.09 | 1 | 1.06 | 1.06 | 1.05 | 0.291 | 0.355 | 0.354 | 0.332 | 0.347 | 0.832 | 0.839 | 0.872 | 0.915 | 0.923
HCC-827 | 0.242 | 0.183 | 0.259 | 0.188 | 0.208 | 1.04 | 0.975 | 0.993 | 0.464 | 0.153 | 0.361 | 0.302 | 0.335 | 0.191 | 0.152 | 1.06 | 1.06 | 1.06 | 1.16 | 1.13
HOP-62 | 0.874 | 1 | 0.893 | 1.12 | 0.903 | 0.975 | 1.07 | 0.999 | 1.18 | 1.01 | 0.244 | 0.267 | 0.208 | 0.202 | 0.249 | 0.891 | 1.14 | 1.14 | 1.26 | 0.952
IA-LM | – | 1.02 | 0.824 | 0.888 | 0.673 | 0.648 | 0.661 | 0.878 | 1.1 | 1.29 | – | – | – | – | – | 0.691 | 1.21 | 1.17 | 1.24 | 0.916
LC-2-ad | 0.648 | 0.976 | 0.946 | 1 | 0.634 | 0.44 | 0.482 | 0.548 | 0.403 | 0.243 | 0.707 | 0.729 | 0.89 | 0.836 | 0.616 | 0.858 | 0.994 | 0.883 | 0.921 | 0.828
LCLC-97TM1 | 0.971 | 0.803 | 0.897 | 0.954 | 0.674 | 0.399 | 0.556 | 0.345 | 0.403 | 0.411 | 0.223 | 0.22 | 0.209 | 0.264 | 0.234 | 0.942 | 0.96 | 0.899 | 0.956 | 0.983
LCLC-103H | – | – | – | – | – | – | – | – | – | – | 0.733 | 0.729 | 0.659 | 0.75 | 0.762 | 0.801 | 0.8 | 0.894 | 0.828 | 0.737
NCI-H358 | 0.436 | 0.413 | 0.463 | 0.518 | 0.481 | – | – | – | – | – | 0.181 | 0.203 | 0.208 | 0.232 | 0.19 | 0.635 | 0.677 | 0.776 | 0.772 | 0.642
NCI-H441 | – | – | – | – | – | 0.627 | 0.529 | 0.754 | 0.368 | 0.578 | 0.243 | 0.22 | 0.222 | 0.277 | 0.217 | – | 0.902 | 0.913 | 1.1 | 0.908
NCI-H522 | – | – | – | – | – | – | – | – | – | – | 0.619 | 0.691 | 0.717 | 0.768 | 0.646 | – | – | – | – | –
NCI-H650 | 0.665 | 0.625 | 0.994 | 1.45 | 0.718 | – | – | – | – | – | 0.354 | 0.324 | 0.322 | 0.351 | 0.329 | 0.946 | – | 0.993 | 0.942 | 1.1
NCI-H661 | 0.512 | 0.533 | 0.451 | 0.519 | 0.476 | – | – | – | – | – | 0.536 | 0.556 | 0.527 | 0.46 | 0.446 | 1.07 | 1.04 | 0.943 | 1.03 | 1.11
NCI-H1299 | 0.941 | 0.991 | 0.946 | 0.998 | 0.918 | 1 | 1.01 | 1.05 | 1.08 | 1.03 | – | – | – | – | – | 1.1 | 1.1 | 1.05 | 1.09 | 1.09
NCI-H1563 | 0.857 | 0.871 | 0.775 | 0.938 | 0.916 | – | – | – | – | – | – | – | – | – | – | 0.85 | 0.922 | 1.03 | 0.952 | 0.914
NCI-H1623 | – | – | – | – | – | – | – | – | – | – | – | – | – | – | – | 0.9 | 0.858 | 0.769 | 0.888 | 0.819
NCI-H1648 | – | – | – | – | – | – | – | – | – | – | 0.55 | 0.52 | 0.479 | 0.49 | 0.418 | – | – | – | – | –
NCI-H1703 | 0.869 | 1.11 | 0.851 | 1.1 | 1.19 | 1.15 | – | 1.27 | 0.575 | 0.256 | – | – | – | – | – | 0.391 | 0.37 | 0.381 | 0.318 | 0.336
NCI-H1792 | – | 0.881 | 0.936 | 1.52 | 0.661 | 0.676 | 0.573 | 0.599 | 0.626 | 0.609 | 0.487 | 0.469 | 0.698 | 0.53 | 0.444 | – | – | – | – | –
NCI-H2228 | 0.725 | 1.01 | 1.18 | 1.46 | 0.924 | 0.917 | 0.482 | – | 0.938 | 0.695 | – | – | – | – | – | 0.971 | 0.84 | 0.993 | 1.04 | 0.76
NCI-H2342 | – | – | – | – | – | – | – | – | – | – | 0.727 | 0.75 | 0.8 | 0.699 | 0.723 | 0.926 | 1.17 | 0.997 | 1.04 | 1.17
SW 900 | – | – | – | – | – | – | – | – | – | – | 0.406 | 0.39 | – | 0.48 | 0.437 | 0.63 | 0.714 | 0.704 | 1.02 | 0.985
